Reference: patent US7914785B2, “B-cell depleting agents, like anti-CD20 antibodies or fragments thereof for the treatment of chronic fatigue syndrome” (Bergen Teknologieverforing AS, priority 2009, dated 2011)

How the values were obtained:
patients with CFS = conditions: six patients with CFS; cited from earlier work
CFS patients = conditions: 99 CFS patients; cited from earlier work
[1] = system: patients with long-standing fatigue; conditions: 12 patients treated; cited from earlier work
[2] = system: B-cells in rheumatoid arthritis patients; conditions: given orally on a weekly schedule for rheumatoid arthritis; cited from earlier work
[3] = system: CFS symptoms in patients with chronic fatigue syndrome; assay: Pilot treatment of three CFS patients with Rituximab infusions and weekly oral Methotrexate; assay type: in vivo, human; conditions: pilot patient 1, weekly oral low-dose 7.5 to 12.5 mg per week; for clinical response on CFS symptoms: used for 22 weeks
From the text: The symptom score of CFS symptoms which is in a range of 0 to 10 wherein 0 means no symptoms while 10 refers to very severe symptoms of CFS.
Methotrexat (Mtx) is a therapeutic agent with known (but not well understood) immunomodulatory properties.

etanercept
clinical outcome (patients with CFS): clinical benefit

CC[C@H]1OC(=O)[C@H](C)[C@@H](O[C@H]2C[C@@](C)(OC)[C@@H](O)[C@H](C)O2)[C@H](C)[C@@H](O[C@@H]2O[C@H](C)C[C@H](N(C)C)[C@H]2O)[C@](C)(O)C[C@@H](C)CN(C)[C@H](C)[C@@H](O)[C@]1(C)O [azithromycin]
CFS patients with improvement (CFS patients): 59%

CC(C)[C@H](N)C(=O)OCC(CO)OCn1cnc2c(=O)nc(N)[nH]c21 (some centres unmarked) [valganciclovir]
patients with improvement of the symptoms [1]: nine

CN(Cc1cnc2nc(N)nc(N)c2n1)c1ccc(C(=O)N[C@@H](CCC(=O)O)C(=O)O)cc1 [Methotrexate]
B-cell depletion [2]: moderate B-cell depletion | start of CFS symptom recovery after onset of weekly treatment [3]: 10 weeks | clinical response on CFS symptoms [3]: significant and moderate clinical response on CFS symptoms | clinical response on CFS symptoms ([3]; listed as Mtx): gradual and moderate CFS symptom recovery | start of CFS symptom recovery after onset of weekly treatment ([3]; listed as Mtx): 12 weeks
